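Grown in 96-well plates, cells were treated for 48 hours with each compound at five concentrations. Insufficient inhibition: endpoint recorded as highest concentration tested. At the GI50, growth is halved. Definition used: TGI = concentration required for complete inhibition of growth.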
Legend:
Assay in all cases: NCI-60 cell line screen, 48 h
BT-549 breast = system: BT-549 breast
HOP-62 NSCLC = system: HOP-62 NSCLC
MCF7 breast = system: MCF7 breast
OVCAR-5 ovarian = system: OVCAR-5 ovarian
RPMI-8226 leukemia = system: RPMI-8226 leukemia
SF-539 CNS = system: SF-539 CNS
SK-MEL-2 melanoma = system: SK-MEL-2 melanoma
SK-MEL-28 melanoma = system: SK-MEL-28 melanoma
SK-MEL-5 melanoma = system: SK-MEL-5 melanoma
UO-31 renal = system: UO-31 renal

O=C(Nc1ccc(I)cc1C(=O)NCCO)c1cccs1
TGI (BT-549 breast): > 100 µM | TGI (HOP-62 NSCLC): > 100 µM | TGI (MCF7 breast): > 100 µM | TGI (OVCAR-5 ovarian): > 100 µM | TGI (RPMI-8226 leukemia): > 100 µM | TGI (SF-539 CNS): > 100 µM | TGI (SK-MEL-2 melanoma): > 100 µM | TGI (SK-MEL-28 melanoma): > 100 µM | TGI (SK-MEL-5 melanoma): > 100 µM | TGI (UO-31 renal): > 100 µM

Cc1ccc2c(c1)nc(N)n[n+]2[O-]
TGI (BT-549 breast): > 100 µM | TGI (HOP-62 NSCLC): > 100 µM | TGI (MCF7 breast): > 100 µM | TGI (OVCAR-5 ovarian): > 100 µM | TGI (RPMI-8226 leukemia): > 100 µM | TGI (SF-539 CNS): > 100 µM | TGI (SK-MEL-2 melanoma): > 100 µM | TGI (SK-MEL-28 melanoma): > 100 µM | TGI (SK-MEL-5 melanoma): > 100 µM | TGI (UO-31 renal): > 100 µM

Cc1cn(C2C=CC(COP(=O)(OCC3=CC(=O)c4ccccc4C3=O)N(C)CCCCCl)O2)c(=O)[nH]c1=O (stereo not drawn)
TGI (HOP-62 NSCLC): 23.9 µM | TGI (MCF7 breast): 20.5 µM | TGI (OVCAR-5 ovarian): 27.1 µM | TGI (RPMI-8226 leukemia): 20.8 µM | TGI (SF-539 CNS): 25.8 µM | TGI (SK-MEL-2 melanoma): 27.2 µM | TGI (SK-MEL-28 melanoma): 18.2 µM | TGI (SK-MEL-5 melanoma): 2.28 µM | TGI (UO-31 renal): 25.4 µM

O=[Se]([O-])c1ccccc1.O=[Se]([O-])c1ccccc1.[OH3+].[OH3+].[Pt+2]
GI50 (HOP-62 NSCLC): 18.5 µM | TGI (HOP-62 NSCLC): 31.2 µM | GI50 (MCF7 breast): 6.42 µM | TGI (MCF7 breast): 37.2 µM | GI50 (OVCAR-5 ovarian): 15.5 µM | TGI (OVCAR-5 ovarian): 39.1 µM | GI50 (RPMI-8226 leukemia): 5.41 µM | TGI (RPMI-8226 leukemia): 39.7 µM | GI50 (SF-539 CNS): 10.6 µM | TGI (SF-539 CNS): 44.2 µM | GI50 (SK-MEL-2 melanoma): 12.7 µM | TGI (SK-MEL-2 melanoma): 35.5 µM | GI50 (SK-MEL-28 melanoma): 10.8 µM | TGI (SK-MEL-28 melanoma): 36.1 µM | GI50 (SK-MEL-5 melanoma): 13.9 µM | TGI (SK-MEL-5 melanoma): 30.5 µM | GI50 (UO-31 renal): 5.78 µM | TGI (UO-31 renal): 46.2 µM

Nc1ccccc1Nc1ccccc1C(=O)[O-].Nc1ccccc1Nc1ccccc1C(=O)[O-].[Cu+2]
TGI (HOP-62 NSCLC): > 100 µM | TGI (OVCAR-5 ovarian): > 100 µM | TGI (RPMI-8226 leukemia): > 100 µM | TGI (SF-539 CNS): > 100 µM | TGI (SK-MEL-2 melanoma): > 100 µM | TGI (SK-MEL-28 melanoma): > 100 µM | TGI (SK-MEL-5 melanoma): > 100 µM | TGI (UO-31 renal): > 100 µM

O=C(NS(=O)(=O)Nc1ccc(Cl)cc1)OCc1ccc(Cl)cc1Cl
TGI (BT-549 breast): 82.3 µM | TGI (HOP-62 NSCLC): > 100 µM | TGI (MCF7 breast): 31.9 µM | TGI (OVCAR-5 ovarian): 70.3 µM | TGI (RPMI-8226 leukemia): > 100 µM | TGI (SF-539 CNS): 40.6 µM | TGI (SK-MEL-2 melanoma): 90.2 µM | TGI (SK-MEL-28 melanoma): 97.5 µM | TGI (SK-MEL-5 melanoma): 39.1 µM | TGI (UO-31 renal): 44.2 µM

COc1ccc(Nc2[nH]c(C(C)=O)c(N)c2C(=S)Nc2ccccc2)cc1
TGI (BT-549 breast): > 100 µM | TGI (HOP-62 NSCLC): > 100 µM | TGI (MCF7 breast): 68.6 µM | TGI (OVCAR-5 ovarian): > 100 µM | TGI (SF-539 CNS): > 100 µM | TGI (SK-MEL-2 melanoma): > 100 µM | TGI (SK-MEL-28 melanoma): > 100 µM | TGI (SK-MEL-5 melanoma): > 100 µM | TGI (UO-31 renal): > 100 µM

CCn1cc(C(c2ccc(Cl)cc2)n2ccnc2)c2cc(Br)ccc21 (stereo not drawn)
TGI (BT-549 breast): 31.9 µM | TGI (HOP-62 NSCLC): 28.6 µM | TGI (MCF7 breast): 29.8 µM | TGI (OVCAR-5 ovarian): 25.5 µM | TGI (RPMI-8226 leukemia): 75 µM | TGI (SF-539 CNS): 41.3 µM | TGI (SK-MEL-2 melanoma): 38.8 µM | TGI (SK-MEL-5 melanoma): 31.2 µM | TGI (UO-31 renal): 20.1 µM

COc1cc2oc(-c3ccc(O)cc3)c(OC3OC(C)C(O)C(O)C3O)c(=O)c2c(O)c1OC (stereo not drawn)
TGI (BT-549 breast): > 100 µM | TGI (HOP-62 NSCLC): > 100 µM | TGI (MCF7 breast): > 100 µM | TGI (OVCAR-5 ovarian): > 100 µM | TGI (RPMI-8226 leukemia): > 100 µM | TGI (SF-539 CNS): > 100 µM | TGI (SK-MEL-2 melanoma): > 100 µM | TGI (SK-MEL-28 melanoma): > 100 µM | TGI (SK-MEL-5 melanoma): > 100 µM

Nc1n[nH]c(=O)[nH]1
TGI (HOP-62 NSCLC): > 100 µM | TGI (MCF7 breast): > 100 µM | TGI (OVCAR-5 ovarian): > 100 µM | TGI (RPMI-8226 leukemia): > 100 µM | TGI (SF-539 CNS): > 100 µM | TGI (SK-MEL-2 melanoma): > 100 µM | TGI (SK-MEL-28 melanoma): > 100 µM | TGI (SK-MEL-5 melanoma): > 100 µM | TGI (UO-31 renal): > 100 µM

N#Cc1c(NC(=S)NC(=O)c2ccccc2)nc2c(c1-c1ccccc1)CCC2
TGI (BT-549 breast): > 100 µM | TGI (HOP-62 NSCLC): > 100 µM | TGI (OVCAR-5 ovarian): > 100 µM | TGI (RPMI-8226 leukemia): > 100 µM | TGI (SF-539 CNS): > 100 µM | TGI (SK-MEL-5 melanoma): > 100 µM | TGI (UO-31 renal): > 100 µM

C=CC(=O)Nc1cccc(-c2nc(SC)nc(Nc3ccccc3OC)c2C#N)c1
GI50 (BT-549 breast): 3.19 µM | TGI (BT-549 breast): 38.5 µM | GI50 (HOP-62 NSCLC): 2.25 µM | TGI (HOP-62 NSCLC): 6.17 µM | GI50 (OVCAR-5 ovarian): 2.26 µM | TGI (OVCAR-5 ovarian): 5.92 µM | GI50 (RPMI-8226 leukemia): 3.11 µM | TGI (RPMI-8226 leukemia): > 100 µM | GI50 (SF-539 CNS): 1.93 µM | TGI (SF-539 CNS): 4.53 µM | GI50 (SK-MEL-2 melanoma): 2.56 µM | TGI (SK-MEL-2 melanoma): 8.58 µM | GI50 (SK-MEL-28 melanoma): 2.29 µM | TGI (SK-MEL-28 melanoma): 5.71 µM | GI50 (SK-MEL-5 melanoma): 1.9 µM | TGI (SK-MEL-5 melanoma): 4.32 µM | GI50 (UO-31 renal): 1.42 µM | TGI (UO-31 renal): 3.18 µM

OCC1CCCC(n2cnc3c(=S)nc[nH]c32)O1 (stereo not drawn)
TGI (BT-549 breast): > 100 µM | TGI (HOP-62 NSCLC): > 100 µM | TGI (MCF7 breast): > 100 µM | TGI (OVCAR-5 ovarian): > 100 µM | TGI (RPMI-8226 leukemia): > 100 µM | TGI (SK-MEL-2 melanoma): > 100 µM | TGI (SK-MEL-28 melanoma): > 100 µM | TGI (SK-MEL-5 melanoma): > 100 µM | TGI (UO-31 renal): > 100 µM

O=C1CC(=O)N(c2ccccc2)N1/C(=C/c1ccccc1)c1ccccc1
TGI (BT-549 breast): 50.2 µM | TGI (HOP-62 NSCLC): 54.5 µM | TGI (MCF7 breast): 57.3 µM | TGI (OVCAR-5 ovarian): > 100 µM | TGI (RPMI-8226 leukemia): 34.5 µM | TGI (SK-MEL-2 melanoma): 69 µM | TGI (SK-MEL-28 melanoma): 26 µM | TGI (SK-MEL-5 melanoma): 28.2 µM | TGI (UO-31 renal): 29.2 µM

Cc1[nH]c(/C=C2\C(=O)Nc3ccc(S(=O)(=O)Cc4c(Cl)cccc4Cl)cc32)c(C)c1C(=O)N1CCC[C@@H]1CN1CCCC1
GI50 (BT-549 breast): 14.1 µM | TGI (BT-549 breast): 83.1 µM | GI50 (HOP-62 NSCLC): 1.99 µM | TGI (HOP-62 NSCLC): 4.55 µM | GI50 (MCF7 breast): 1.69 µM | TGI (MCF7 breast): 3.64 µM | GI50 (OVCAR-5 ovarian): 1.95 µM | TGI (OVCAR-5 ovarian): 3.72 µM | GI50 (SF-539 CNS): 1.51 µM | TGI (SF-539 CNS): 2.89 µM | GI50 (SK-MEL-2 melanoma): 12.5 µM | TGI (SK-MEL-2 melanoma): 53.1 µM | GI50 (SK-MEL-28 melanoma): 1.4 µM | TGI (SK-MEL-28 melanoma): 2.75 µM | GI50 (SK-MEL-5 melanoma): 2.58 µM | TGI (SK-MEL-5 melanoma): 15.8 µM | GI50 (UO-31 renal): 1.41 µM | TGI (UO-31 renal): 3.07 µM

O=C(O)c1ccc(NC(c2ccccc2)c2ccc3cccnc3c2O)cc1 (stereo not drawn)
TGI (BT-549 breast): > 74 µM | TGI (HOP-62 NSCLC): > 100 µM | TGI (MCF7 breast): > 80.7 µM | TGI (OVCAR-5 ovarian): > 100 µM | TGI (RPMI-8226 leukemia): 28 µM | TGI (SF-539 CNS): 25.9 µM | TGI (SK-MEL-2 melanoma): > 100 µM | TGI (SK-MEL-28 melanoma): > 100 µM | TGI (SK-MEL-5 melanoma): 29.8 µM | TGI (UO-31 renal): 34.6 µM

CCC(=O)C(c1ccccc1)c1ccccn1 (stereo not drawn)
TGI (BT-549 breast): > 100 µM | TGI (HOP-62 NSCLC): > 100 µM | TGI (MCF7 breast): > 100 µM | TGI (OVCAR-5 ovarian): > 100 µM | TGI (RPMI-8226 leukemia): > 100 µM | TGI (SK-MEL-2 melanoma): > 100 µM | TGI (SK-MEL-28 melanoma): > 100 µM | TGI (SK-MEL-5 melanoma): > 100 µM | TGI (UO-31 renal): > 100 µM

CC(C)CC(N)C(=O)OCN1C(=O)C2C3C=CC(C2C1=O)C1C2C(=O)N(COC(=O)C(N)CC(C)C)C(=O)C2C31 (stereo not drawn)
TGI (HOP-62 NSCLC): > 100 µM | TGI (OVCAR-5 ovarian): > 100 µM | TGI (RPMI-8226 leukemia): > 78.6 µM | TGI (SF-539 CNS): > 100 µM | TGI (SK-MEL-2 melanoma): > 100 µM | TGI (SK-MEL-28 melanoma): > 100 µM | TGI (SK-MEL-5 melanoma): > 100 µM | TGI (UO-31 renal): > 100 µM

COC1OC(=O)[C@H]2O[N+]([O-])=C(C)[C@@H]12 (stereo partly drawn)
TGI (HOP-62 NSCLC): > 100 µM | TGI (MCF7 breast): > 100 µM | TGI (OVCAR-5 ovarian): > 100 µM | TGI (RPMI-8226 leukemia): > 100 µM | TGI (SF-539 CNS): > 100 µM | TGI (SK-MEL-2 melanoma): > 100 µM | TGI (SK-MEL-28 melanoma): > 100 µM | TGI (SK-MEL-5 melanoma): > 100 µM | TGI (UO-31 renal): > 100 µM
